Test results reported in patent US20230295110A1, “PHD INHIBITOR COMPOUNDS, COMPOSITIONS, AND METHODS OF USE” (Akebia Therapeutics, Inc., priority 2020, published 2023).
pIC50: −log10 of the molar value. Like-named read-outs stand apart in the source and are kept apart here.

How the values were obtained:
[1] = molecular target: full-length human PHD3 (Homo sapiens (Human), UniProt Q9H6Z9); test: TR-FRET assay for PHD enzymes, PHD3; type: biochemical
Description: Recombinant human PHD3 protein (molecular weight 31.1 kDa) was purchased from Active Motif (Carlsbad, CA, USA). It was expressed in E. coli as the full-length protein (NCBI accession number NP_071356.1) with an N-terminal 6-His tag (catalog #81033, Lot #24417001).

[2] = molecular target: full-length human PHD2 (Homo sapiens (Human), UniProt Q9GZT9); test: TR-FRET assay for PHD enzymes, PHD2
Chain of full-length human PHD2 (Q9GZT9 whole entry): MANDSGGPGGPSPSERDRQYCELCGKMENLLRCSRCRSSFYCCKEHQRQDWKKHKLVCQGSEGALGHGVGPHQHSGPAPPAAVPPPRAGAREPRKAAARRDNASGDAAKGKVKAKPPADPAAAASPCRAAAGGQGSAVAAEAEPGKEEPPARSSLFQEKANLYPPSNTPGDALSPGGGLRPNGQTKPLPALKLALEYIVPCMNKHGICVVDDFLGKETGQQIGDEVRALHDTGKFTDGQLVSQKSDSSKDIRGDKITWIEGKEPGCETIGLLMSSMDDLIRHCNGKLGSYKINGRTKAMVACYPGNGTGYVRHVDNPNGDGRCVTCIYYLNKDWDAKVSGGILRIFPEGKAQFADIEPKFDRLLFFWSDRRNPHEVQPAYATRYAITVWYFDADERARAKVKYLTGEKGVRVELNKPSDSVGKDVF
Description: Time-resolved fluorescence resonance energy transfer (TR-FRET) assay was utilized to determine the enzymatic half maximal inhibitory concentration (IC50) value of PHD inhibitors against the full-length human prolyl-4-hydroxylase domain (PHD) enzymes, PHD1, PHD2, and PHD3. The TR-FRET assay was developed based on the specific binding of hydroxylated HIF-1α peptide with the complex formed by VHL, EloB and EloC (VBC), to generate a fluorescent signal. Terbium (Tb)-Donor (monoclonal antibody anti-6His-Tb-cryptate Gold) and D2-acceptor (streptavidin [SA]-D2) of TR-FRET are linked to the VBC complex and to HIF-1α peptide, respectively. The VBC complex binds specifically to the HIF-1α peptide when it is hydroxylated, allowing energy transfer from TR-FRET donor to acceptor (FIG. 1). […] The plates were incubated for 30 minutes at room temperature without rotation. […] TR-FRET assays were performed in triplicate at each concentration of compound and the assays were repeated independently three times.

[3] = molecular target: full-length human PHD1 (Homo sapiens (Human), UniProt Q96KS0); test: TR-FRET assay for PHD enzymes, PHD1; type: biochemical; settings: TR-FRET, 15 nM PHD1, 1 μM 2-OG
Chain of full-length human PHD1 (Q96KS0 whole entry): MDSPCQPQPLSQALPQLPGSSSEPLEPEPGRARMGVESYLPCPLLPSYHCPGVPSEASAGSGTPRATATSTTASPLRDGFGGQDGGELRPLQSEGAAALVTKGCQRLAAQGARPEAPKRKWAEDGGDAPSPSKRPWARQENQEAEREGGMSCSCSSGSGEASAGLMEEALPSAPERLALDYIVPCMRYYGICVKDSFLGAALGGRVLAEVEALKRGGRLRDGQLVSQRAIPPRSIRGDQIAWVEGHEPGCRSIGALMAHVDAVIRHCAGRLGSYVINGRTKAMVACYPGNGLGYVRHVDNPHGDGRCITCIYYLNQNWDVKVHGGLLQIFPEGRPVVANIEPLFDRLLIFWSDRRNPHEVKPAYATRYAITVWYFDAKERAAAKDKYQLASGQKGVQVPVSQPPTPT
Description: PHD1 was expressed in a baculovirus expression system as the full-length protein (NCBI accession number NP_542770.2) with an N-terminal FLAG tag (molecular weight 44.9 kDa).

[4] = read-out: PHD2 IC50, TR-FRET, 5 nM PHD2, 1 μM 2-OG

Chain of full-length human PHD3 (Q9H6Z9 whole entry): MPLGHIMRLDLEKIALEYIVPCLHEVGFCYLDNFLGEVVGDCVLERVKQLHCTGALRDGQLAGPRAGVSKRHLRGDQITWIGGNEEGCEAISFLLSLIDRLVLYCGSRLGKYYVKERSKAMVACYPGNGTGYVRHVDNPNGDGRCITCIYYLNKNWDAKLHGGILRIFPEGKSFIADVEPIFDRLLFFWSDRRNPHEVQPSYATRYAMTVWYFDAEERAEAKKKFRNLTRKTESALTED

| SMILES | pIC50 ([1]; TR-FRET, 35 nM PHD3, 1 μM 2-OG) | pIC50 [2, 4] | pIC50 [3] | pIC50 [1] | pIC50 [2] |
| --- | --- | --- | --- | --- | --- |
| COc1cccc(-c2cnc(C(=O)NCC(=O)O)c(O)c2C)c1 [Compound 2, (3-Hydroxy-5-(3-methoxyphenyl)-4-methylpicolinoyl)glycine] | > 7.00 | > 7.00 | > 7.00 | – | – |
| Cc1c(-c2ccc3cnccc3c2)cnc(C(=O)NCC(=O)O)c1O [Compound 3, (3-Hydroxy-5-(isoquinolin-6-yl)-4-methylpicolinoyl)glycine] | > 7.00 | > 7.00 | > 7.00 | – | – |
| Cc1ccc2cc(-c3cnc(C(=O)NCC(=O)O)c(O)c3C)ccc2n1 [Compound 5, (3-Hydroxy-4-methyl-5-(2-methylquinolin-6-yl)picolinoyl)glycine] | > 7.00 | > 7.00 | > 7.00 | – | – |
| Cc1c(-c2cnc(-c3ccccc3)s2)cnc(C(=O)NCC(=O)O)c1O [Compound 7, (3-Hydroxy-4-methyl-5-(2-phenylthiazol-5-yl)picolinoyl)glycine] | > 7.00 | > 7.00 | > 7.00 | – | – |
| Cc1c(-c2ccc(C(F)(F)F)nc2)cnc(C(=O)NCC(=O)O)c1O [Compound 9, (5-Hydroxy-4-methyl-6′-(trifluoromethyl)-[3,3′-bipyridine]-6-carbonyl)glycine] | > 7.00 | > 7.00 | > 7.00 | – | – |
| Cc1c(-c2cccnc2)cnc(C(=O)NCC(=O)O)c1O [Compound 10, (5-Hydroxy-4-methyl-[3,3′-bipyridine]-6-carbonyl)glycine] | > 7.00 | > 7.00 | > 7.00 | – | – |
| Cc1c(-c2cnn(-c3ccccn3)c2)cnc(C(=O)NCC(=O)O)c1O [Compound 18, (3-Hydroxy-4-methyl-5-(1-(pyridin-2-yl)-1H-pyrazol-4-yl)picolinoyl)glycine] | > 7.00 | > 7.00 | > 7.00 | – | – |
| Cc1c(-c2cnn(-c3ccc(F)cc3)c2)cnc(C(=O)NCC(=O)O)c1O [Compound 19, (5-(1-(4-Fluorophenyl)-1H-pyrazol-4-yl)-3-hydroxy-4-methylpicolinoyl)glycine] | > 7.00 | > 7.00 | > 7.00 | – | – |
| Cc1c(-c2cnn(C(C)C)c2)cnc(C(=O)NCC(=O)O)c1O [Compound 20, (3-Hydroxy-5-(1-isopropyl-1H-pyrazol-4-yl)-4-methylpicolinoyl)glycine] | > 7.00 | > 7.00 | > 7.00 | – | – |
| Cc1c(-c2cnn(C3CCOCC3)c2)cnc(C(=O)NCC(=O)O)c1O [Compound 21, (3-Hydroxy-4-methyl-5-(1-(tetrahydro-2H-pyran-4-yl)-1H-pyrazol-4-yl)picolinoyl)glycine] | > 7.00 | > 7.00 | > 7.00 | – | – |
| Cc1c(-c2cnn(CC(C)C)c2)cnc(C(=O)NCC(=O)O)c1O [Compound 22, (3-Hydroxy-5-(1-isobutyl-1H-pyrazol-4-yl)-4-methylpicolinoyl)glycine] | > 7.00 | > 7.00 | > 7.00 | – | – |
| Cc1nc(C(=O)NCC(=O)O)c(O)c(C)c1-c1cnn(-c2ccccc2)c1 [Compound 25, (3-Hydroxy-4,6-dimethyl-5-(1-phenyl-1H-pyrazol-4-yl)picolinoyl)glycine] | > 7.00 | > 7.00 | > 7.00 | – | – |
| Cc1c(-c2cnc(-c3ccccc3)o2)cnc(C(=O)NCC(=O)O)c1O [Compound 26, (3-hydroxy-4-methyl-5-(2-phenyloxazol-5-yl)picolinoyl)glycine] | > 7.00 | > 7.00 | > 7.00 | – | – |
| Cc1ccc(-c2cnc(C(=O)NCC(=O)O)c(O)c2C)cn1 [Compound 27, (5-hydroxy-4,6′-dimethyl-[3,3′-bipyridine]-6-carbonyl)glycine] | – | > 7.00 | > 7.00 | 6.00 to 7.00 | – |
| Cc1c(-c2cnc3ccccc3c2)cnc(C(=O)NCC(=O)O)c1O [Compound 28] | > 7.00 | > 7.00 | > 7.00 | – | – |
| Cc1c(-c2cccc(Cl)c2)cnc(C(=O)NCC(=O)O)c1O [Compound 32, (5-(3-chlorophenyl)-3-hydroxy-4-methylpicolinoyl)glycine] | > 7.00 | > 7.00 | > 7.00 | – | – |
| Cc1c(-c2ccc3ccccc3c2)cnc(C(=O)NCC(=O)O)c1O [Compound 33, (3-hydroxy-4-methyl-5-(naphthalen-2-yl)picolinoyl)glycine] | > 7.00 | > 7.00 | > 7.00 | – | – |
| Cc1c(-c2cc(Cl)cc(Cl)c2)cnc(C(=O)NCC(=O)O)c1O [Compound 36, (5-(3,5-dichlorophenyl)-3-hydroxy-4-methylpicolinoyl)glycine] | > 7.00 | > 7.00 | > 7.00 | – | – |
| Cc1nc(-c2ccccc2)sc1-c1cnc(C(=O)NCC(=O)O)c(O)c1C [Compound 37, (3-hydroxy-4-methyl-5-(4-methyl-2-phenylthiazol-5-yl)picolinoyl)glycine] | > 7.00 | > 7.00 | > 7.00 | – | – |
| Cc1nn(-c2ccc(F)cc2)cc1-c1cnc(C(=O)NCC(=O)O)c(O)c1C [Compound 38, (5-(1-(4-fluorophenyl)-3-methyl-1H-pyrazol-4-yl)-3-hydroxy-4-methylpicolinoyl)glycine] | > 7.00 | > 7.00 | > 7.00 | – | – |
| Cc1nn(-c2cccc(F)c2)cc1-c1cnc(C(=O)NCC(=O)O)c(O)c1C [Compound 39, (5-(1-(3-fluorophenyl)-3-methyl-1H-pyrazol-4-yl)-3-hydroxy-4-methylpicolinoyl)glycine] | > 7.00 | > 7.00 | > 7.00 | – | – |
| Cc1c(-c2cn(-c3ccc(F)cc3)nn2)cnc(C(=O)NCC(=O)O)c1O [Compound 41, (5-(1-(4-fluorophenyl)-1H-1,2,3-triazol-4-yl)-3-hydroxy-4-methylpicolinoyl)glycine] | > 7.00 | > 7.00 | > 7.00 | – | – |
| Cc1c(-c2cn(CCc3ccc(Cl)cc3)nn2)cnc(C(=O)NCC(=O)O)c1O [Compound 42, (5-(1-(4-chlorophenethyl)-1H-1,2,3-triazol-4-yl)-3-hydroxy-4-methylpicolinoyl)glycine] | > 7.00 | > 7.00 | > 7.00 | – | – |
| Cc1c(-c2cn(CCCc3ccc(Cl)cc3)nn2)cnc(C(=O)NCC(=O)O)c1O [Compound 43, (5-(1-(3-(4-chlorophenyl)propyl)-1H-1,2,3-triazol-4-yl)-3-hydroxy-4-methylpicolinoyl)glycine] | > 7.00 | > 7.00 | > 7.00 | – | – |
| Cc1c(-c2cn(-c3ccccc3)nn2)cnc(C(=O)NCC(=O)O)c1O [Compound 44, (3-hydroxy-4-methyl-5-(1-phenyl-1H-1,2,3-triazol-4-yl)picolinoyl)glycine] | > 7.00 | > 7.00 | > 7.00 | – | – |
| Cc1c(-c2cnn(-c3ccc(C(F)(F)F)cc3)c2)cnc(C(=O)NCC(=O)O)c1O [Compound 67] | – | > 7.00 | > 7.00 | – | – |
| O=C(O)CNC(=O)c1ncc(-c2cccc(Cl)c2)c(C2CC2)c1O [Compound 69, (5-(3-Chlorophenyl)-4-cyclopropyl-3-hydroxypicolinoyl)glycine] | – | – | 6.00 to 7.00 | – | 6.00 to 7.00 |
| O=C(O)CNC(=O)c1ncc(-c2cccc(Cl)c2)c(C(F)F)c1O [Compound 70, (5-(3-Chlorophenyl)-4-(difluoromethyl)-3-hydroxypicolinoyl)glycine] | – | – | 6.00 to 7.00 | – | 6.00 to 7.00 |
